Measured values as given in US8192962B2, “Processes for detecting toxic substances” (Daikin Industries, Ltd., priority 2001, dated 2012).

Test system: DNA repair protein genes
Assay: DNA chip mRNA expression in yeast, DNA repair protein genes (Table 3)
Format: cell-based, Saccharomyces cerevisiae S288C
Conditions: incubated two hours, concentrations as in the 1st table
How it was run: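 Whole-genome yeast DNA chip hybridization (65° C., >12 h) of Cy-labeled cDNA from S288C cells exposed 2 h at 25° C. to a sub-lethal toxicant dose in YPD; value is intensity relative to chemical-free control.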

Measured: The level of expressed mRNA in the presence of chemical substance/The level of expressed mRNA in the absence of chemical substance

manganese ethylenebis(dithiocarbamate) [(8)]
1.0: yeast gene YCR014C | yeast gene YDR369C | yeast gene YGR180C | yeast gene YMR072W | yeast gene YOR386W | yeast gene YPL022W | yeast gene YPL164C
0.8: yeast gene YEL037C | yeast gene YGR258C
0.9: yeast gene YEL019C | yeast gene YER162C | yeast gene YGL127C | yeast gene YGL249W | yeast gene YIL143C | yeast gene YJR046W | yeast gene YML032C | yeast gene YOL043C
1.4: yeast gene YGL163C | yeast gene YIL072W | yeast gene YLR103C | yeast gene YMR035W
1.7: yeast gene YJR052W
1.2: yeast gene YBL019W | yeast gene YDL017W | yeast gene YDL059C | yeast gene YIR002C | yeast gene YJL026W | yeast gene YNL312W
0.7: yeast gene YML058W
3.4: yeast gene YFL014W
1.3: yeast gene YGL058W | yeast gene YNL250W | yeast gene YOR005C | yeast gene YPL194W | yeast gene YPR025C
0.5: yeast gene YIL153W
1.5: yeast gene YDL200C | yeast gene YDR054C | yeast gene YKL145W | yeast gene YLR288C
2.0: yeast gene YMR096W
1.1: yeast gene YAL015C | yeast gene YAR007C | yeast gene YBR073W | yeast gene YBR272C | yeast gene YGR231C | yeast gene YHR164C | yeast gene YIL036W | yeast gene YLR233C | yeast gene YMR284W | yeast gene YNL261W
1.8: yeast gene YGL091C | yeast gene YNL213C
